{"source": "PubChem BioAssay (NCI)", "assay_in_all_cases": "NCI-60 cell line screen, 48 h", "key": {"NCI-H226 lung": {"test_system": "NCI-H226 lung"}, "NCI-H23 lung": {"test_system": "NCI-H23 lung"}, "NCI-H460 lung": {"test_system": "NCI-H460 lung"}, "NCI-H522 lung": {"test_system": "NCI-H522 lung"}, "OVCAR-3 ovarian": {"test_system": "OVCAR-3 ovarian"}, "OVCAR-4 ovarian": {"test_system": "OVCAR-4 ovarian"}, "OVCAR-5 ovarian": {"test_system": "OVCAR-5 ovarian"}, "OVCAR-8 ovarian": {"test_system": "OVCAR-8 ovarian"}, "PC-3 prostate": {"test_system": "PC-3 prostate"}, "RPMI-8226 leukemia": {"test_system": "RPMI-8226 leukemia"}, "RXF 393 renal": {"test_system": "RXF 393 renal"}, "SF-268 CNS": {"test_system": "SF-268 CNS"}, "SF-295 CNS": {"test_system": "SF-295 CNS"}, "SF-539 CNS": {"test_system": "SF-539 CNS"}, "SK-MEL-2 melanoma": {"test_system": "SK-MEL-2 melanoma"}, "SK-MEL-28 melanoma": {"test_system": "SK-MEL-28 melanoma"}, "SK-MEL-5 melanoma": {"test_system": "SK-MEL-5 melanoma"}, "SK-OV-3 ovarian": {"test_system": "SK-OV-3 ovarian"}, "SN12C renal": {"test_system": "SN12C renal"}, "SNB-19 CNS": {"test_system": "SNB-19 CNS"}, "SNB-75 CNS": {"test_system": "SNB-75 CNS"}, "SR leukemia": {"test_system": "SR leukemia"}, "SW-620 colon": {"test_system": "SW-620 colon"}, "T-47D breast": {"test_system": "T-47D breast"}, "TK-10 renal": {"test_system": "TK-10 renal"}, "U251 CNS": {"test_system": "U251 CNS"}, "UACC-257 melanoma": {"test_system": "UACC-257 melanoma"}, "UACC-62 melanoma": {"test_system": "UACC-62 melanoma"}, "UO-31 renal": {"test_system": "UO-31 renal"}}, "note": "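In this assay, cells in 96-well plates receive the compound at five concentrations for 48 hours. Endpoints are linearly interpolated between the surrounding concentrations. At the GI50, growth is halved. Definition used: TGI = concentration required for complete inhibition of growth.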"}
{"smiles": "COc1cc2cc(C(=O)N3C[C@@H](CCl)c4c3cc(OC(=O)N(CCC(=O)N3CCN(C)CC3)C3CCCCC3)c3ccccc43)[nH]c2c(OC)c1OC", "values": [{"measurement": "GI50", "setting": "NCI-H226 lung", "value": 1440, "unit": "nM"}, {"measurement": "TGI", "setting": "NCI-H226 lung", "value": 4210, "unit": "nM"}, {"measurement": "GI50", "setting": "NCI-H23 lung", "value": 471, "unit": "nM"}, {"measurement": "TGI", "setting": "NCI-H23 lung", "value": 1930, "unit": "nM"}, {"measurement": "GI50", "setting": "NCI-H460 lung", "value": 512, "unit": "nM"}, {"measurement": "TGI", "setting": "NCI-H460 lung", "value": 10700, "unit": "nM"}, {"measurement": "GI50", "setting": "NCI-H522 lung", "value": 1700, "unit": "nM"}, {"measurement": "TGI", "setting": "NCI-H522 lung", "value": 4530, "unit": "nM"}, {"measurement": "GI50", "setting": "OVCAR-3 ovarian", "value": 2100, "unit": "nM"}, {"measurement": "TGI", "setting": "OVCAR-3 ovarian", "value": 4670, "unit": "nM"}, {"measurement": "GI50", "setting": "OVCAR-4 ovarian", "value": 2340, "unit": "nM"}, {"measurement": "TGI", "setting": "OVCAR-4 ovarian", "value": 6350, "unit": "nM"}, {"measurement": "GI50", "setting": "OVCAR-5 ovarian", "value": 5110, "unit": "nM"}, {"measurement": "TGI", "setting": "OVCAR-5 ovarian", "value": 27900, "unit": "nM"}, {"measurement": "GI50", "setting": "OVCAR-8 ovarian", "value": 1660, "unit": "nM"}, {"measurement": "TGI", "setting": "OVCAR-8 ovarian", "value": 10100, "unit": "nM"}, {"measurement": "GI50", "setting": "PC-3 prostate", "value": 3140, "unit": "nM"}, {"measurement": "TGI", "setting": "PC-3 prostate", "value": "> 100000", "unit": "nM"}, {"measurement": "GI50", "setting": "RPMI-8226 leukemia", "value": 1470, "unit": "nM"}, {"measurement": "TGI", "setting": "RPMI-8226 leukemia", "value": 5080, "unit": "nM"}, {"measurement": "GI50", "setting": "RXF 393 renal", "value": 1060, "unit": "nM"}, {"measurement": "TGI", "setting": "RXF 393 renal", "value": 2460, "unit": "nM"}, {"measurement": "GI50", "setting": "SF-268 CNS", "value": 1540, "unit": "nM"}, {"measurement": "TGI", "setting": "SF-268 CNS", "value": 7450, "unit": "nM"}, {"measurement": "GI50", "setting": "SF-295 CNS", "value": 1550, "unit": "nM"}, {"measurement": "TGI", "setting": "SF-295 CNS", "value": 6790, "unit": "nM"}, {"measurement": "GI50", "setting": "SF-539 CNS", "value": 1310, "unit": "nM"}, {"measurement": "TGI", "setting": "SF-539 CNS", "value": 3870, "unit": "nM"}, {"measurement": "GI50", "setting": "SK-MEL-2 melanoma", "value": 1980, "unit": "nM"}, {"measurement": "TGI", "setting": "SK-MEL-2 melanoma", "value": 3500, "unit": "nM"}, {"measurement": "GI50", "setting": "SK-MEL-28 melanoma", "value": 3580, "unit": "nM"}, {"measurement": "TGI", "setting": "SK-MEL-28 melanoma", "value": 8960, "unit": "nM"}, {"measurement": "GI50", "setting": "SK-MEL-5 melanoma", "value": 1640, "unit": "nM"}, {"measurement": "TGI", "setting": "SK-MEL-5 melanoma", "value": 3220, "unit": "nM"}, {"measurement": "GI50", "setting": "SK-OV-3 ovarian", "value": 2150, "unit": "nM"}, {"measurement": "TGI", "setting": "SK-OV-3 ovarian", "value": 9350, "unit": "nM"}, {"measurement": "GI50", "setting": "SN12C renal", "value": 1200, "unit": "nM"}, {"measurement": "TGI", "setting": "SN12C renal", "value": 10200, "unit": "nM"}, {"measurement": "GI50", "setting": "SNB-19 CNS", "value": 2220, "unit": "nM"}, {"measurement": "TGI", "setting": "SNB-19 CNS", "value": 20000, "unit": "nM"}, {"measurement": "GI50", "setting": "SNB-75 CNS", "value": 1290, "unit": "nM"}, {"measurement": "TGI", "setting": "SNB-75 CNS", "value": 3700, "unit": "nM"}, {"measurement": "GI50", "setting": "SR leukemia", "value": 276, "unit": "nM"}, {"measurement": "TGI", "setting": "SR leukemia", "value": 1930, "unit": "nM"}, {"measurement": "GI50", "setting": "SW-620 colon", "value": 1890, "unit": "nM"}, {"measurement": "TGI", "setting": "SW-620 colon", "value": 12600, "unit": "nM"}, {"measurement": "GI50", "setting": "T-47D breast", "value": 1900, "unit": "nM"}, {"measurement": "TGI", "setting": "T-47D breast", "value": 6630, "unit": "nM"}, {"measurement": "GI50", "setting": "TK-10 renal", "value": 2850, "unit": "nM"}, {"measurement": "TGI", "setting": "TK-10 renal", "value": 8530, "unit": "nM"}, {"measurement": "GI50", "setting": "U251 CNS", "value": 1510, "unit": "nM"}, {"measurement": "TGI", "setting": "U251 CNS", "value": 4460, "unit": "nM"}, {"measurement": "GI50", "setting": "UACC-257 melanoma", "value": 1990, "unit": "nM"}, {"measurement": "TGI", "setting": "UACC-257 melanoma", "value": 4630, "unit": "nM"}, {"measurement": "GI50", "setting": "UACC-62 melanoma", "value": 1530, "unit": "nM"}, {"measurement": "TGI", "setting": "UACC-62 melanoma", "value": 3280, "unit": "nM"}, {"measurement": "GI50", "setting": "UO-31 renal", "value": 1880, "unit": "nM"}, {"measurement": "TGI", "setting": "UO-31 renal", "value": 6340, "unit": "nM"}]}
